Consider twelve compounds from PubChem BioAssay (NCI).

Test systems include 786-0 renal; A549 NSCLC; COLO 205 colon; HT29 colon; MDA-N; MOLT-4 leukemia; NCI-H23 lung; NCI-H460 lung; NCI-H522 lung; OVCAR-8 ovarian; SNB-19 CNS.
What all share (experiment): growth of human tumour cells (NCI), 48 h

SMILES strings stand for the structures.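 Five concentrations, 48 hours, 96-well plates. The concentration for full growth arrest is given as TGI.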 Some results are limits rather than exact numbers.

On to `COC(=O)C1(C#N)C(C)(C)N=C(c2ccccc2)C12CCCCC2` (configuration not stated), for which the TGI in the experiment with 786-0 renal, in the experiment with A549 NSCLC, in the experiment with COLO 205 colon, in the experiment on HT29 colon, in the experiment on MDA-N and with MOLT-4 leukemia was greater than 100 µM in each case. For the same compound, the TGI in the experiment with NCI-H23 lung, with NCI-H460 lung, in the experiment with NCI-H522 lung, with OVCAR-8 ovarian and in the experiment on SNB-19 CNS was greater than 100 µM throughout.

With `COc1cc(/C=N/n2c(-c3ccccc3)nn(C(C)=O)c2=O)cc(OC)c1OC`, the TGI is greater than 53.1 µM in the experiment on 786-0 renal; greater than 94.6 µM in the experiment with A549 NSCLC; 4.55 µM with COLO 205 colon; greater than 44.3 µM with HT29 colon; 3.83 µM in the experiment on MDA-N; greater than 52.7 µM in the experiment with MOLT-4 leukemia. Besides, the TGI with NCI-H23 lung was greater than 49.4 µM; with NCI-H460 lung, greater than 39.2 µM; in the experiment with NCI-H522 lung, 8.56 µM; in the experiment with OVCAR-8 ovarian, greater than 82.2 µM; in the experiment on SNB-19 CNS it was greater than 52.3 µM.

For the compound `CC1(C)Cc2nc3c(cc2C(=O)C1C=N/C(C#N)=C(\N)C#N)C(=O)C(C=N/C(C#N)=C(\N)C#N)C(C)(C)C3` (configuration not stated), the TGI in the experiment on 786-0 renal is 3.47 µM; with A549 NSCLC it was 8.31 µM; in the experiment on COLO 205 colon, 7.04 µM; with HT29 colon, 10.9 µM; with MDA-N, 11.8 µM; with MOLT-4 leukemia it was greater than 100 µM. The TGI in the experiment with NCI-H23 lung came to 7.36 µM; in the experiment with NCI-H460 lung it was 8.21 µM; in the experiment with NCI-H522 lung it was 2.3 µM; in the experiment with OVCAR-8 ovarian it was 8.71 µM; with SNB-19 CNS, 21.5 µM.

Take `O=C(O)CCSCc1ccccc1`: the TGI in the experiment with 786-0 renal, in the experiment on A549 NSCLC, in the experiment with COLO 205 colon, in the experiment on HT29 colon, in the experiment on MDA-N and in the experiment with MOLT-4 leukemia was greater than 100 µM throughout. Further, the TGI in the experiment with NCI-H23 lung, in the experiment on NCI-H460 lung, with NCI-H522 lung, with OVCAR-8 ovarian and in the experiment on SNB-19 CNS was greater than 100 µM in each case.

For `CC(=O)OCC1OC(Nn2c(=O)[nH]c3ccccc3c2=O)C(OC(C)=O)C(OC(C)=O)C1OC(C)=O` (configuration not stated), the TGI with 786-0 renal, in the experiment with A549 NSCLC, in the experiment on COLO 205 colon, in the experiment with HT29 colon, in the experiment on MDA-N and with MOLT-4 leukemia was greater than 100 µM in each case. The TGI in the experiment on NCI-H23 lung, in the experiment on NCI-H460 lung, in the experiment on NCI-H522 lung, in the experiment with OVCAR-8 ovarian and in the experiment on SNB-19 CNS was greater than 100 µM in each case.

As to `CC(=O)OCC1OC(n2c(-c3ccccc3)c(C(C)=O)c(-c3cccc4ccccc34)c(C#N)c2=S)C(OC(C)=O)C(OC(C)=O)C1OC(C)=O` (configuration not stated), the TGI in the experiment with 786-0 renal, in the experiment with A549 NSCLC, in the experiment with COLO 205 colon, in the experiment with HT29 colon, in the experiment with MDA-N and in the experiment on MOLT-4 leukemia was greater than 100 µM in each case. Moreover, the TGI with NCI-H23 lung, in the experiment with NCI-H460 lung, with NCI-H522 lung, with OVCAR-8 ovarian and in the experiment on SNB-19 CNS was greater than 100 µM in each case.

Regarding `C=C(CCC/C(C)=C/C=C/[C@@H](C)CCCc1ccoc1)C[C@@H]1OC(=O)[C@H](C)[C@@H]1O`, the TGI in the experiment with 786-0 renal is 31.5 µM; in the experiment on A549 NSCLC, 17 µM; in the experiment with COLO 205 colon it was 20.5 µM; in the experiment on HT29 colon, greater than 50 µM; in the experiment with MDA-N it was 21.5 µM; in the experiment on MOLT-4 leukemia, greater than 50 µM. Further, the TGI worked out at 16.6 µM in the experiment on NCI-H23 lung; 29.8 µM in the experiment with NCI-H460 lung; 15.5 µM in the experiment with NCI-H522 lung; 21.3 µM in the experiment on OVCAR-8 ovarian; 17.8 µM in the experiment with SNB-19 CNS.

For `C/C(CC(O)(/C=N/O)c1ccccc1)=N/O` (configuration not stated), the TGI in the experiment on 786-0 renal, in the experiment with A549 NSCLC, in the experiment with HT29 colon, with MDA-N, in the experiment with MOLT-4 leukemia and in the experiment on NCI-H23 lung was greater than 100 µM in each case. Further, the TGI in the experiment with NCI-H460 lung, in the experiment on NCI-H522 lung, in the experiment with OVCAR-8 ovarian and in the experiment with SNB-19 CNS was greater than 100 µM throughout.

As for `CCOC(=O)C1=NN(c2ccc([N+](=O)[O-])cc2)[C@@]2(C)C[C@]3(c4ccccc4)N(c4ccc([N+](=O)[O-])cc4)N=C(C(=O)OCC)N3c3ccccc3N12`, the TGI in the experiment on 786-0 renal, with A549 NSCLC, in the experiment with COLO 205 colon, with HT29 colon, with MDA-N and in the experiment with MOLT-4 leukemia was greater than 100 µM throughout. Moreover, the TGI in the experiment with NCI-H23 lung, in the experiment with NCI-H522 lung, with OVCAR-8 ovarian and in the experiment on SNB-19 CNS was greater than 100 µM in each case.

As to `O=c1[nH]nc(Cc2c[nH]c3ccccc23)o1`, the TGI with 786-0 renal, with A549 NSCLC, in the experiment with COLO 205 colon, in the experiment with HT29 colon, in the experiment on MDA-N and in the experiment with MOLT-4 leukemia was greater than 100 µM throughout. The TGI in the experiment on NCI-H23 lung, with NCI-H522 lung, with OVCAR-8 ovarian and with SNB-19 CNS was greater than 100 µM throughout.

As for `COC1CC(COCc2ccccc2)CC(OC)O1` (configuration not stated), the TGI in the experiment on 786-0 renal, with A549 NSCLC, with COLO 205 colon, with HT29 colon, with MDA-N and in the experiment on MOLT-4 leukemia was greater than 100 µM each time. Also, the TGI in the experiment on NCI-H23 lung, with NCI-H460 lung, in the experiment with NCI-H522 lung and with OVCAR-8 ovarian was greater than 100 µM throughout.

On to `COC(O)C(=O)c1ccc2c(c1)CC1(C2)Cc2cc3c(cc2C1=O)CCC3` (configuration not stated), for which the TGI with 786-0 renal was 31.4 µM; in the experiment on A549 NSCLC it was 47.4 µM; in the experiment on COLO 205 colon, 47.2 µM; with HT29 colon, 42.3 µM; with MDA-N, 42.3 µM; with MOLT-4 leukemia, 64 µM. For the same compound, the TGI turned out to be 56.2 µM in the experiment with NCI-H23 lung, 70.6 µM with NCI-H460 lung, 35.7 µM in the experiment on NCI-H522 lung and 34.5 µM in the experiment with SNB-19 CNS.
